These results are taken from patent US20160151412A1, “COMBINATION OF XENON WITH AN NMDA RECEPTOR ANTAGONIST FOR FIGHTING A NEURODEGENERATIVE DISEASE” (L'AIR LIQUIDE, SOCIETE ANONYME POUR L'ETUDE ET …, priority 2013, published 2016).

In the assay the test system is rat cortex cultures (cortical neurons). In words: Neuronal survival (MAP-2 positive cell counts) in rat cortex cultures with PDC-induced chronic cortical degeneration under controlled gas atmosphere. Type of assay: cell-based. Set-up: key to Neuronal survival: +++=reference level; ++: a favorable response, synonymous with a decrease in neuronal cell death in the presence of the treatments of interest; +: a favorable response, synonymous with a decrease in neuronal cell death in the presence of the treatments of interest; an unfavorable response is represented by a “−” sign, synonymous with an increase in neuronal death. On the procedure:
Cultures are prepared from rat embryo cortex taken from Wistar rates, on day 15.5 of gestation. The method for obtaining cortex cultures comprises the preparation of a homogeneous cell suspension by mechanical, i.e., non-enzymatic, dissociation of embryonic tissue using Leibovitz's L15 medium (Sigma Aldrich). Aliquots of this suspension are added to Nunc 48-well plates coated beforehand with a thin layer of polyethylenimine (1 mg/ml, borate buffer, pH 8.3) to allow neuronal cells to adhere (see Toulorge et al., Faseb J, 2011). The seeding density is between about 20,000 and 30,000 cells/cm^2. The cortex cultures are maintained in Neurobasal culture medium containing an […] B27 cocktail, N2 supplement, glutamine (2 mM) and a penicillin/streptomycin cocktail (see Nafia et al., J Neurochem, 2008). The medium and the supplement are available from Life Technologies. Six hours after placing in culture, 0.5 μM of the antimitotic cytarabine (Sigma Aldrich) is added to limit the proliferation of astrocytes. Until the moment when the effects of the gases of interest are evaluated, the cultures are placed in a conventional enclosure thermostated at 37° C., wherein CO2 is maintained at 5% by volume and the atmosphere is saturated with water. The culture medium is not changed during the culture period. The degenerative process is triggered by applying a glutamate reuptake system blocker, PDC (Zuiderwijk et al., Europ J Pharmacol, 1994). The NMDA receptor blocker, memantine, is added to the cultures before the application of PDC. These two products (PDC and memantine) are from RD Systems. Once the pharmacological treatments are carried out, the multi-well plates containing the cells in culture and the plate used for humidification of the internal compartment of the chamber are placed on a metal base that receives the Plexiglas incubation chamber. The two parts (base and Plexiglas chamber) are screwed together in a joined manner. A gas mixture of interest comprising (% by volume): 20% O2, 5% CO2 and 75% of the gas tested is then injected into the incubation chamber, with inlet and outlet valves open, while controlling the outlet flow by means of a flowmeter. The gases tested are nitrogen and xenon. The reference outlet flow, set for air at 10 liters/minute, is corrected as a function of the density of the mixture used. When the CO2 measurement at the outlet reaches 5%, the injection of the gas mixture is stopped and the chamber is completely sealed by closing the inlet and outlet valves. The exposure chamber is then placed in a 37° C. enclosure throughout the experimental protocol. After breaking the seal by opening the inlet and outlet valves and unscrewing the chamber from its base, the cultures are fixed with 4% formaldehyde in PBS for 12 minutes and then incubated at 4° C. with a monoclonal anti-MAP-2 antibody (dilution 1:200; clone AP-20; Sigma-Aldrich) for 3 days. This antibody is detected with an anti-mouse secondary antibody coupled with cyanine-3 (Sigma Aldrich; dilution 1:1000 in PBS). Image capturing is carried out with the 10× objective using a Nikon TE-300 inverted microscope equipped with an ORCA-ER cooled digital camera and HCl image capturing software (Hamamatsu). […] The cultures are then collected for fixing and analysis. Neuronal survival is quantified in the various experimental conditions tested by counting the number of cell bodies immunopositive for the pan-neuronal marker MAP-2.

With `O=C(O)[C@H]1CN[C@H](C(=O)O)C1` (relative stereo) [PDC, L-trans-pyrrolidine-2,4-dicarboxylic acid], for the setting “PDC 30 μM, 75% N2, days 12-16”, the Neuronal survival entry is given as “−”. For the same compound, where the note is “PDC 30 μM, 75% nitrogen”, the “loss of cortical neuronal cells” value is given as “about 85%”. For the setting “PDC 30 μM, 75% nitrogen, % of cultures not treated with PDC under 75% nitrogen”, the survival rate is on record as 15.9%.
Take `CC12CC3CC(C)(C1)CC(N)(C3)C2` [memantine]: under “PDC 30 μM + memantine 0.1 μM alone, 75% nitrogen”, the “effect on neuronal survival” value is listed as “no significant effect”. In addition, the Neuronal survival entry reads like this: (PDC 30 μM + memantine 0.1 μM, 75% N2, days 12-16) “−”; (PDC 30 μM + memantine 1 μM, 75% N2, days 12-16) “++”; (PDC 30 μM + memantine 10 μM, 75% N2, days 12-16) “+++”. The survival rate (PDC 30 μM + memantine 1 μM by itself, 75% nitrogen) is 54.6%. Besides, the neuronal cells saved result (PDC 30 μM + memantine 10 μM itself, 75% nitrogen) is listed as “more than 90%”.
For `[Xe]` [Xe, xenon], the Neuronal survival entry (PDC 30 μM, 75% Xe, days 12-16) was “++” and the Neuronal survival entry (no PDC, 20% O2 + 5% CO2 + 75% Xe, days 12-16, day-16 cortex cultures) is on record as “+++”. Also, the “effect on neuronal survival versus nitrogen-alone condition (ANOVA, Student-Newman-Keuls, p<0.05)” value (PDC 30 μM, 75% xenon without memantine, n=6) is “significantly superior to that of the nitrogen-alone condition”.
